From patent EP2396020B1, “NOVEL ANTIMICROBIAL PEPTIDES” (Institute Of Organic Chemistry And Biochemistry As CR, …, priority 2009, dated 2010)
Peptide text beside a SMILES is read from it.

Tests used:
Staphylococcus aureus = settings: LB broth, 37°C, 20 h
Protocol: (§2) Antimicrobial activity was determined as a quantitative minimum inhibitory concentration (MIC) by observing bacterial growth in the presence of different concentrations of tested peptides. Mid-exponential phase bacteria were added to the solutions of the tested antimicrobial peptide at different concentrations (0.5 to 100 µM) in LB broth in multi-well plates. The plates were incubated at 37°C for 20 h while being continuously shaken in a Bioscreen C instrument (Finland). The absorbance was measured at 540 nm every 15 min and each peptide was tested at least 3 times in duplicate. In the experiments was routinely used 1.2 10^3 - 7.5 10^3 CFU of bacteria. Tetracycline in a concentration range of 0.1 - 50 µM was tested as a standard.

Pseudomonnas aeruginosa = settings: LB broth, 37°C, 20 h
Protocol: as §2

Escherichia coli = settings: LB broth, 37°C, 20 h
Protocol: as §2

Bacillus subtilis = settings: LB broth, 37°C, 20 h
Protocol: as §2

[1] = Determination of hemolytic activity; format: cell-based; settings: rat red blood cells (5% suspension), 1 h at 37°C, physiological solution, read-out: hemolytic activity LC50
Protocol: (§1) The peptides in the concentration (1-200 µM) were incubated with rat red blood cells (5%) for 1 h at 37°C in a physiological solution at a final volume of 0.2 ml The samples were then centrifuged for 5 min at 250 g, and the absorbance of the supernatant was determined at 540 nm. Supernatants of red blood cells suspended in physiological solution and in 0.2% TRITON X100 in physiological solution served as controls for zero hemolysis (blank) and 100% hemolysis, respectively.

rat red blood cells = experiment: Determination of hemolytic activity; format: cell-based; settings: rat red blood cells (5%), 1 h at 37°C, physiological solution
Protocol: as §1

Row | Structure (SMILES) | antimicrobial activity MIC S.a. (Staphylococcus aureus) | antimicrobial activity MIC P.a. (Pseudomonnas aeruginosa) | antimicrobial activity MIC E. c. (Escherichia coli) | antimicrobial activity MIC B.s. (Bacillus subtilis) | HC50 at 1 h [1] [µM] | hemolytic activity LC50 (rat red blood cells)
1 | CC[C@H](C)[C@H](NC(=O)[C@H](CC(C)C)NC(=O)[C@H](Cc1c[nH]cn1)NC(=O)CNC(=O)[C@H](CC(C)C)NC(=O)[C@@H](NC(=O)[C@H](CCCCN)NC(=O)[C@H](CO)NC(=O)[C@H](Cc1c[nH]c2ccccc12)NC(=O)[C@H](CCSC)NC(=O)CN)[C@@H](C)CC)C(=O)N[C@@H](CCCCN)C(N)=O [(1-A/3), H-Gly-Met-Trp-Ser-Lys-Ile-Leu-Gly-His-Leu-Ile-Lys-NH2] (H-GMWSKILGHLIK-NH2) | 12,5 µM | 50 µM | 6.0 µM | 0,75 µM | 111 | 
2 | CC[C@H](C)[C@H](NC(=O)[C@H](Cc1c[nH]cn1)NC(=O)[C@H](CCCCN)NC(=O)[C@H](CC(C)C)NC(=O)[C@H](CC(C)C)NC(=O)[C@H](CCCCN)NC(=O)[C@H](CCSC)NC(=O)[C@H](Cc1c[nH]c2ccccc12)NC(=O)[C@H](CCCCN)NC(=O)CN)C(=O)N[C@@H](CC(C)C)C(=O)N[C@@H](CCCCN)C(N)=O [(2-A/2), H-Gly-Lys-Trp-Met-Lys-Leu-Leu-Lys-His-Ile-Leu-Lys-NH2] (H-GKWMKLLKHILK-NH2) | 4,5 µM | 10,7 µM | 2,5 µM | 0,8 µM |  | 87,5 µM
3 | CC[C@H](C)[C@H](NC(=O)[C@H](CC(C)C)NC(=O)[C@H](Cc1c[nH]cn1)NC(=O)CNC(=O)[C@H](CC(C)C)NC(=O)[C@@H](NC(=O)[C@H](CCCCN)NC(=O)[C@H](CO)NC(=O)[C@H](Cc1c[nH]c2ccccc12)NC(=O)[C@H](CCSC)NC(=O)CN)[C@@H](C)CC)C(=O)N[C@@H](CCCNC(=N)N)C(N)=O [(1), H-Gly-Met-Trp-Ser-Lys-Ile-Leu-Gly-His-Leu-Ile-Arg-NH2] (H-GMWSKILGHLIR-NH2) | 7,4 µM | 45 µM | 3,8 µM | 0,7 µM | 80 | 
4 | CC[C@H](C)[C@H](NC(=O)[C@H](CC(C)C)NC(=O)[C@H](Cc1c[nH]cn1)NC(=O)CNC(=O)[C@H](CC(C)C)NC(=O)[C@@H](NC(=O)[C@H](CCCCN)NC(=O)[C@H](CCCCN)NC(=O)[C@H](Cc1c[nH]c2ccccc12)NC(=O)[C@H](CCSC)NC(=O)CN)[C@@H](C)CC)C(=O)N[C@@H](CCCNC(=N)N)C(N)=O [(1-A/1), H-Gly-Met-Trp-Lys-Lys-Ile-Leu-Gly-His-Leu-Ile-Arg-NH2] (H-GMWKKILGHLIR-NH2) | 6,0 µM | 12,5 µM | 1,8 µM | 1,1 µM | 93 | 
5 | CC[C@H](C)[C@H](NC(=O)[C@H](Cc1c[nH]cn1)NC(=O)[C@H](CCCCN)NC(=O)[C@H](CC(C)C)NC(=O)[C@H](CC(C)C)NC(=O)[C@H](CO)NC(=O)[C@H](CCSC)NC(=O)[C@H](Cc1c[nH]c2ccccc12)NC(=O)[C@H](CCCCN)NC(=O)CN)C(=O)N[C@@H](CC(C)C)C(=O)N[C@@H](CCCCN)C(N)=O [(2), H-Gly-Lys-Trp-Met-Ser-Leu-Leu-Lys-His-Ile-Leu-Lys-NH2] (H-GKWMSLLKHILK-NH2) | 7,5 µM | 33 µM | 2,2 µM | 0,8 µM | 80 | 
6 | CC[C@H](C)[C@H](NC(=O)[C@H](CC(C)C)NC(=O)[C@H](CCCCN)NC(=O)CNC(=O)[C@H](CC(C)C)NC(=O)[C@@H](NC(=O)[C@H](CCCCN)NC(=O)[C@H](CCCCN)NC(=O)[C@H](Cc1c[nH]c2ccccc12)NC(=O)[C@H](CCCCN)NC(=O)CN)[C@@H](C)CC)C(=O)N[C@@H](CCCNC(=N)N)C(N)=O [(1-A/4), H-Gly-Lys-Trp-Lys-Lys-Ile-Leu-Gly-Lys-Leu-Ile-Arg-NH2] (H-GKWKKILGKLIR-NH2) | 60,0 µM | 14,2 µM | 1,8 µM | 1,3 µM | > 200 | 
7 | CC[C@H](C)[C@H](NC(=O)[C@H](CCCCN)NC(=O)[C@H](CCCCN)NC(=O)[C@H](CC(C)C)NC(=O)[C@H](CC(C)C)NC(=O)[C@H](CO)NC(=O)[C@H](CCSC)NC(=O)[C@H](Cc1c[nH]c2ccccc12)NC(=O)[C@H](CCCCN)NC(=O)CN)C(=O)N[C@@H](CC(C)C)C(=O)N[C@@H](CCCCN)C(N)=O [(2-A/3), H-Gly-Lys-Trp-Met-Ser-Leu-Leu-Lys-Lys-Ile-Leu-Lys-NH2] (H-GKWMSLLKKILK-NH2) | 6,3 µM | 13,8 µM | 2,7 µM | 1,2 µM | 126 | 
8 | CC[C@H](C)[C@H](NC(=O)[C@H](CCCCN)NC(=O)[C@H](CO)NC(=O)[C@H](Cc1c[nH]c2ccccc12)NC(=O)[C@H](CCSC)NC(=O)CN)C(=O)N[C@@H](CC(C)C)C(=O)NCC(=O)N[C@@H](Cc1c[nH]cn1)C(=O)N[C@@H](CC(C)C)C(=O)N[C@@H](CCCCN)C(=O)N[C@@H](CCCNC(=N)N)C(N)=O [(1-A/2), H-Gly-Met-Trp-Ser-Lys-Ile-Leu-Gly-His-Leu-Lys-Arg-NH2] (H-GMWSKILGHLKR-NH2) | 100 µM | 90 µM | 28 µM | 2,2 µM | > 200 | 
9 | CC[C@H](C)[C@H](NC(=O)[C@H](Cc1c[nH]cn1)NC(=O)[C@H](CCCCN)NC(=O)[C@H](CC(C)C)NC(=O)[C@H](CC(C)C)NC(=O)[C@H](CO)NC(=O)[C@H](CCCCN)NC(=O)[C@H](Cc1c[nH]c2ccccc12)NC(=O)[C@H](CCCCN)NC(=O)CN)C(=O)N[C@@H](CC(C)C)C(=O)N[C@@H](CCCCN)C(N)=O [(2-A/1), H-Gly-Lys-Trp-Lys-Ser-Leu-Leu-Lys-His-Ile-Leu-Lys-NH2] (H-GKWKSLLKHILK-NH2) | 25 µM | 12,5 µM | 3 µM | 1,5 µM | 95 | 
